Measured values reported in patent publication US9995734B2, “Human T cell line assay for evaluating the immunologic identity of glatiramer acetate preparations” (Mylan Inc., priority 2013, dated 2018).

Tests used:
Assay type in all cases: cell-based, human
[1] = tested on: Donor 3 GMA T-Cell Lines; test: ATP proliferation assay (CellTiter Glo), Donor 3 GMA T-cell lines, incl. reactivity to non-canonical GA peptides; conditions: for Non-Canonical Peptide Non-Reactivity: proliferation <2 times no antigen control
[2] = tested on: Donor 3 COP T-Cell Lines; test: ATP proliferation assay (CellTiter Glo), Donor 3 COP T-cell lines, incl. reactivity to non-canonical GA peptides; conditions: for Non-Canonical Peptide Non-Reactivity: proliferation <2 times no antigen control
[3] = tested on: Donor 4 COP T-Cell Lines; test: ATP proliferation assay (CellTiter Glo), Donor 4 COP T-cell lines, incl. reactivity to non-canonical GA peptides; conditions: 205-1H11; proliferation <2 times no antigen control

**Q.** poly (Glu-Tyr; 1:1) [GT 11] was tested. Which “Non-Canonical Peptide Non-Reactivity” value ([1]; 165-B5G) did it give?
**A.** The value was “GT 11”.

**Q.** And the “Non-Canonical Peptide Non-Reactivity” value ([1]; 165-C4G)?
**A.** The value was “GT 11”.

**Q.** What about the “Non-Canonical Peptide Non-Reactivity” value ([1]; 165-C5G) of the same substance?
**A.** The value was “GT 11”.

**Q.** What about the “Non-Canonical Peptide Non-Reactivity” value ([1]; 165-E7G) of the same substance?
**A.** Its value is “GT 11”.

**Q.** What about the “Non-Canonical Peptide Non-Reactivity” value ([1]; 165-E9G) of the same substance?
**A.** The value was “GT 11”.

**Q.** And the “Non-Canonical Peptide Non-Reactivity” value ([1]; 165-F5G)?
**A.** The value was “GT 11”.

**Q.** And the “Non-Canonical Peptide Non-Reactivity” value ([1]; 165-F8G)?
**A.** The value was “GT 11”.

**Q.** What about the “Non-Canonical Peptide Non-Reactivity” value ([1]; 165-F10G) of the same substance?
**A.** The value was “GT 11”.

**Q.** And the “Non-Canonical Peptide Non-Reactivity” value ([1]; 165-H11G)?
**A.** The value was “GT 11”.

**Q.** And the “Proliferation (luminescent ATP assay), Mean” value (“Proliferation” below) ([1]; T-cell line 165-B5G, 1.25 μg/mL antigen, Day 55 of culturing, No Antigen Value 846)?
**A.** Its value is 2167 RLU.

**Q.** What about the “Proliferation” value ([1]; T-cell line 165-B5G, 2.5 μg/mL antigen, Day 55 of culturing, No Antigen Value 846) of the same substance?
**A.** Its value is 1957 RLU.

**Q.** What about the “Proliferation” value ([1]; T-cell line 165-B5G, 5 μg/mL antigen, Day 55 of culturing, No Antigen Value 846) of the same substance?
**A.** The value was 1353 RLU.

**Q.** And the “Proliferation” value ([1]; T-cell line 165-B5G, 10 μg/mL antigen, Day 55 of culturing, No Antigen Value 846)?
**A.** The value was 1191 RLU.

**Q.** What about the “Proliferation” value ([1]; T-cell line 165-C5G, 1.25 μg/mL antigen, autologous B-LCL) of the same substance?
**A.** The value was 523 RLU.

**Q.** And the “Proliferation” value ([1]; T-cell line 165-C5G, 2.5 μg/mL antigen, autologous B-LCL)?
**A.** The value was 620 RLU.

**Q.** And the “Proliferation” value ([1]; T-cell line 165-C5G, 5 μg/mL antigen, autologous B-LCL)?
**A.** Its value is 428 RLU.

**Q.** What about the “Proliferation” value ([1]; T-cell line 165-C5G, 10 μg/mL antigen, autologous B-LCL) of the same substance?
**A.** Its value is 471 RLU.

**Q.** And the “Proliferation” value ([1]; T-cell line 165-E7G, 1.25 μg/mL antigen, autologous B-LCL, Day 55)?
**A.** The value was 2821 RLU.

**Q.** What about the “Proliferation” value ([1]; T-cell line 165-E7G, 2.5 μg/mL antigen, autologous B-LCL, Day 55) of the same substance?
**A.** Its value is 2914 RLU.

**Q.** And the “Proliferation” value ([1]; T-cell line 165-E7G, 5 μg/mL antigen, autologous B-LCL, Day 55)?
**A.** Its value is 2332 RLU.

**Q.** What about the “Proliferation” value ([1]; T-cell line 165-E7G, 10 μg/mL antigen, autologous B-LCL, Day 55) of the same substance?
**A.** Its value is 1848 RLU.

**Q.** What about the “Proliferation” value ([1]; T-cell line 165-E9G, 1.25 μg/mL antigen, autologous B-LCL) of the same substance?
**A.** Its value is 110 RLU.

**Q.** And the “Proliferation” value ([1]; T-cell line 165-E9G, 2.5 μg/mL antigen, autologous B-LCL)?
**A.** The value was 119 RLU.

**Q.** And the “Proliferation” value ([1]; T-cell line 165-E9G, 5 μg/mL antigen, autologous B-LCL)?
**A.** The value was 103 RLU.

**Q.** What about the “Proliferation” value ([1]; T-cell line 165-E9G, 10 μg/mL antigen, autologous B-LCL) of the same substance?
**A.** The value was 96 RLU.

**Q.** What about the “Proliferation” value ([1]; T-cell line 165-F5G, 1.25 μg/mL antigen, autologous B-LCL) of the same substance?
**A.** Its value is 160 RLU.

**Q.** What about the “Proliferation” value ([1]; T-cell line 165-F5G, 2.5 μg/mL antigen, autologous B-LCL) of the same substance?
**A.** The value was 124 RLU.

**Q.** What about the “Proliferation” value ([1]; T-cell line 165-F5G, 5 μg/mL antigen, autologous B-LCL) of the same substance?
**A.** The value was 124 RLU.

**Q.** What about the “Proliferation” value ([1]; T-cell line 165-F5G, 10 μg/mL antigen, autologous B-LCL) of the same substance?
**A.** The value was 158 RLU.

**Q.** And the “Proliferation” value ([1]; T-cell line 165-F10G, 1.25 μg/mL antigen, autologous B-LCL)?
**A.** Its value is 1388 RLU.

**Q.** What about the “Proliferation” value ([1]; T-cell line 165-F10G, 2.5 μg/mL antigen, autologous B-LCL) of the same substance?
**A.** The value was 1506 RLU.

**Q.** What about the “Proliferation” value ([1]; T-cell line 165-F10G, 5 μg/mL antigen, autologous B-LCL) of the same substance?
**A.** Its value is 1598 RLU.

**Q.** And the “Proliferation” value ([1]; T-cell line 165-F10G, 10 μg/mL antigen, autologous B-LCL)?
**A.** Its value is 1294 RLU.

**Q.** And the “Proliferation” value ([1]; T-cell line 165-H11G, 1.25 μg/mL antigen, autologous B-LCL)?
**A.** The value was 17 RLU.

**Q.** And the “Proliferation” value ([1]; T-cell line 165-H11G, 2.5 μg/mL antigen, autologous B-LCL)?
**A.** The value was 354 RLU.

**Q.** What about the “Proliferation” value ([1]; T-cell line 165-H11G, 5 μg/mL antigen, autologous B-LCL) of the same substance?
**A.** Its value is 352 RLU.

**Q.** What about the “Proliferation” value ([1]; T-cell line 165-H11G, 10 μg/mL antigen, autologous B-LCL) of the same substance?
**A.** The value was 308 RLU.

**Q.** What about the “Non-Canonical Peptide Non-Reactivity” value ([2]; 165-B6C) of the same substance?
**A.** Its value is “GT 11”.

**Q.** And the “Non-Canonical Peptide Non-Reactivity” value ([2]; 165-B10C)?
**A.** Its value is “GT 11”.

**Q.** And the “Non-Canonical Peptide Non-Reactivity” value ([2]; 165-C4C)?
**A.** The value was “GT 11”.

**Q.** And the “Non-Canonical Peptide Non-Reactivity” value ([2]; 165-C7C)?
**A.** The value was “GT 11”.

**Q.** What about the “Non-Canonical Peptide Non-Reactivity” value ([2]; 165-D2C) of the same substance?
**A.** The value was “GT 11”.

**Q.** What about the “Non-Canonical Peptide Non-Reactivity” value ([2]; 165-D3C) of the same substance?
**A.** The value was “GT 11”.

**Q.** And the “Non-Canonical Peptide Non-Reactivity” value ([2]; 165-F3C)?
**A.** The value was “GT 11”.

**Q.** What about the “Non-Canonical Peptide Non-Reactivity” value ([2]; 165-F6C) of the same substance?
**A.** Its value is “GT 11”.

**Q.** And the “Non-Canonical Peptide Non-Reactivity” value ([2]; 165-U3C (so in the source))?
**A.** Its value is “GT 11”.

**Q.** And the “Proliferation” value ([2]; T-cell line 165-C4C, 1 μg/mL antigen, Day 66 of culture, 0 μg/mL 1881)?
**A.** The value was 2664.

**Q.** What about the “Proliferation” value ([2]; T-cell line 165-C4C, 3 μg/mL antigen, Day 66 of culture, 0 μg/mL 1881) of the same substance?
**A.** The value was 2804.

**Q.** And the “Proliferation” value ([2]; T-cell line 165-C4C, 10 μg/mL antigen, Day 66 of culture, 0 μg/mL 1881)?
**A.** The value was 2311.

**Q.** What about the “Proliferation” value ([2]; T-cell line 165-C7C, 1.25 μg/mL antigen, autologous B-LCL) of the same substance?
**A.** Its value is 346 RLU.

**Q.** And the “Proliferation” value ([2]; T-cell line 165-C7C, 2.5 μg/mL antigen, autologous B-LCL)?
**A.** Its value is 265 RLU.

**Q.** And the “Proliferation” value ([2]; T-cell line 165-C7C, 5 μg/mL antigen, autologous B-LCL)?
**A.** The value was 255 RLU.

**Q.** And the “Proliferation” value ([2]; T-cell line 165-C7C, 10 μg/mL antigen, autologous B-LCL)?
**A.** Its value is 234 RLU.

**Q.** And the “Proliferation” value ([2]; T-cell line 165-F3C, 1 μg/mL antigen, Day 77 of culture, 0 μg/mL 1563)?
**A.** The value was 2108.

**Q.** What about the “Proliferation” value ([2]; T-cell line 165-F3C, 3 μg/mL antigen, Day 77 of culture, 0 μg/mL 1563) of the same substance?
**A.** Its value is 2152.

**Q.** And the “Proliferation” value ([2]; T-cell line 165-F3C, 10 μg/mL antigen, Day 77 of culture, 0 μg/mL 1563)?
**A.** The value was 1652.

**Q.** What about the “Proliferation” value ([2]; T-cell line 165-F6C, 1.25 μg/mL antigen, Day 76 of culture, No Antigen value 517) of the same substance?
**A.** Its value is 406.

**Q.** What about the “Proliferation” value ([2]; T-cell line 165-F6C, 2.5 μg/mL antigen, Day 76 of culture, No Antigen value 517) of the same substance?
**A.** Its value is 426.

**Q.** What about the “Proliferation” value ([2]; T-cell line 165-F6C, 5 μg/mL antigen, Day 76 of culture, No Antigen value 517) of the same substance?
**A.** The value was 388.

**Q.** What about the “Proliferation” value ([2]; T-cell line 165-F6C, 10 μg/mL antigen, Day 76 of culture, No Antigen value 517) of the same substance?
**A.** The value was 303.

**Q.** And the “Non-Canonical Peptide Non-Reactivity” value [3]?
**A.** The value was “GT 11”.
